Source: PubChem BioAssay AID330 (DTP/NCI, 2004)
“And” between values parts separate entries of the source, which are not always exact repeats. Identical values can stand only once. Inconclusive results and toxic doses are left out. The calls were made as follows: active = survival T/C of 150% or more; inactive = T/C below 125% in these data.

System: P388 leukemia ip, CD2F1 mice, survival T/C
Experiment: NCI In Vivo Anticancer Drug Screen. Data for tumor model P388 Leukemia (intraperitoneal) in CD2F1 (CDF1) mice
Details: endpoint: median survival time, higher = longer survival
In short: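 Mice carrying the transplanted tumor received test compound or vehicle. Survival was recorded in each group, and the value is the treated-group measurement divided by that of the vehicle-treated control group.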

[1] = dose: 50.0 mg/kg/injection, schedule: Q01DX005 (ip), vehicle: Klucel (hydroxypropylcellulose) (HPC)
[2] = dose: 100.0 mg/kg/injection, schedule: Q01DX005 (ip), vehicle: Klucel (hydroxypropylcellulose) (HPC)
[3] = dose: 200.0 mg/kg/injection, schedule: Q01DX005 (ip), vehicle: Klucel (hydroxypropylcellulose) (HPC)
[4] = dose: 50.0 mg/kg/injection, schedule: Q01DX009 (ip), vehicle: saline
[5] = dose: 100.0 mg/kg/injection, schedule: Q01DX009 (ip), vehicle: saline
[6] = dose: 200.0 mg/kg/injection, schedule: Q01DX009 (ip), vehicle: saline
[7] = dose: 50.0 mg/kg/injection, schedule: Q01DX009 (ip), vehicle: saline with Tween-80

Measured: T/C

CC1(C)OC(=O)C(=Cc2ccc(-c3cc(C(F)(F)F)cc(C(F)(F)F)c3)o2)C(=O)O1
inactive: [1] 104 % of control | [2] 100 % of control | [3] 92 % of control

NC(=O)C[CH2][Sn]([Cl])([Cl])[CH2]CC(N)=O
inactive: dose: 50.0 mg/kg/injection, schedule: Q01DX005 (ip), vehicle: saline 98 % of control | dose: 100.0 mg/kg/injection, schedule: Q01DX005 (ip), vehicle: saline 98 % of control | dose: 200.0 mg/kg/injection, schedule: Q01DX005 (ip), vehicle: saline 105 % of control

CCCCC[CH2][Ge]([CH2]CCC)([CH2]CCC)[CH]1CCCCC1
inactive: [4] 106 % of control | [5] 103 % of control | [6] 95 % of control

O=C(NS(=O)C1C=CC2CCCC21)OC1CCCCC1c1ccccc1 (stereo unspecified)
inactive: [1] 109 % of control | [2] 100 % of control | [3] 97 % of control

O=C(O)CSc1ncccc1Nc1ccc([N+](=O)[O-])cn1
inactive: [4] 102 % of control | [5] 86 % of control

O=C(O)CSCCCCCSCC(=O)O
inactive: [4] 105 % of control | [5] 106 % of control | [6] 106 % of control

O=C(N/N=C/c1ccccc1O)C(=O)NC1CC1
inactive: [7] 92 % of control | dose: 100.0 mg/kg/injection, schedule: Q01DX009 (ip), vehicle: saline with Tween-80 91 % of control | dose: 200.0 mg/kg/injection, schedule: Q01DX009 (ip), vehicle: saline with Tween-80 91 % of control

O=C(NC(=O)c1cccc2ccccc12)NC(=S)c1cccc2ccccc12
inactive: dose: 100.0 mg/kg/injection, schedule: Q01DX001 (ip), vehicle: saline 103 % of control and 96 % of control | dose: 200.0 mg/kg/injection, schedule: Q01DX001 (ip), vehicle: saline 109 % of control and 95 % of control | dose: 400.0 mg/kg/injection, schedule: Q01DX001 (ip), vehicle: saline 101 % of control and 87 % of control

C=CCC1C/C=C\COC(=O)CC(C)(C)CC1=O (stereo unspecified)
inactive: dose: 25.0 mg/kg/injection, schedule: Q04DX003 (ip), vehicle: saline 100 % of control | dose: 50.0 mg/kg/injection, schedule: Q04DX003 (ip), vehicle: saline 102 % of control | dose: 100.0 mg/kg/injection, schedule: Q04DX003 (ip), vehicle: saline 102 % of control | dose: 400.0 mg/kg/injection, schedule: Q04DX003 (ip), vehicle: saline 99 % of control

O=C1C=C(c2ccccc2)CS1
inactive: dose: 100.0 mg/kg/injection, schedule: Q04DX003 (ip), vehicle: Klucel (hydroxypropylcellulose) (HPC) 101 % of control | dose: 200.0 mg/kg/injection, schedule: Q04DX003 (ip), vehicle: Klucel (hydroxypropylcellulose) (HPC) 101 % of control | dose: 400.0 mg/kg/injection, schedule: Q04DX003 (ip), vehicle: Klucel (hydroxypropylcellulose) (HPC) 101 % of control

CCOC(=O)C1Cc2nc(-c3ccccc3)ncc2C1=O (stereo unspecified)
inactive: dose: 12.5 mg/kg/injection, schedule: Q01DX009 (ip), vehicle: saline with Tween-80 107 % of control | dose: 25.0 mg/kg/injection, schedule: Q01DX009 (ip), vehicle: saline with Tween-80 107 % of control | [7] 101 % of control

CCOC(=O)C(C[N+](=O)[O-])(NC(=O)c1ccccc1)C(=O)OCC
inactive: dose: 60.0 mg/kg/injection, schedule: Q01DX005 (ip), vehicle: saline 104 % of control | dose: 120.0 mg/kg/injection, schedule: Q01DX005 (ip), vehicle: saline 105 % of control | dose: 240.0 mg/kg/injection, schedule: Q01DX005 (ip), vehicle: saline 99 % of control

CC(C)C1=CC(=O)C2=C(CCC3C(C)(C(=O)O)CCC[C@]23C)C1=O (stereo partly specified)
inactive: dose: 6.0 mg/kg/injection, schedule: Q01DX005 (ip), vehicle: Klucel (hydroxypropylcellulose) (HPC) 102 % of control | dose: 12.0 mg/kg/injection, schedule: Q01DX005 (ip), vehicle: Klucel (hydroxypropylcellulose) (HPC) 104 % of control | dose: 24.0 mg/kg/injection, schedule: Q01DX005 (ip), vehicle: Klucel (hydroxypropylcellulose) (HPC) 100 % of control | dose: 48.0 mg/kg/injection, schedule: Q01DX005 (ip), vehicle: Klucel (hydroxypropylcellulose) (HPC) 99 % of control

O=C(O)c1ccc(NC(C[N+](=O)[O-])C(F)(F)C(F)(F)C(F)(F)F)cc1 (stereo unspecified)
inactive: dose: 100.0 mg/kg/injection, schedule: Q01DX001 (ip), vehicle: saline sonified 100 % of control | dose: 200.0 mg/kg/injection, schedule: Q01DX001 (ip), vehicle: saline sonified 100 % of control | dose: 400.0 mg/kg/injection, schedule: Q01DX001 (ip), vehicle: saline sonified 100 % of control

O=C(Nc1ccccc1-c1ccccc1)c1ccc2c(c1)OCO2
inactive: dose: 50.0 mg/kg/injection, schedule: Q01DX005 (ip), vehicle: saline with Tween-80 97 % of control | dose: 100.0 mg/kg/injection, schedule: Q01DX005 (ip), vehicle: saline with Tween-80 111 % of control | dose: 200.0 mg/kg/injection, schedule: Q01DX005 (ip), vehicle: saline with Tween-80 97 % of control
